A short description of assay [1]: In vitro inhibitory activity against prolonging prothrombin time as anticoagulant effect on extrinsic coagulation pathway. The class given is functional. The conditions noted are these: Homo sapiens.
The next assay concerns the target Coagulation factor X (Homo sapiens, UniProt P00742). Kind of assay: Inhibitory concentration against human coagulation factor Xa.
In assay [2] the target is Coagulation factor VII/tissue factor (Homo sapiens, UniProt P08709). Kind of assay: Inhibitory concentration against human coagulation factor VIIa/tissue factor cleavage of fluorogenic substrate SN17c at 37 degree C for 15 minutes. The class given is protein-complex assay.
Sequence of Coagulation factor VII/tissue factor (P08709 61-212 limits assumed): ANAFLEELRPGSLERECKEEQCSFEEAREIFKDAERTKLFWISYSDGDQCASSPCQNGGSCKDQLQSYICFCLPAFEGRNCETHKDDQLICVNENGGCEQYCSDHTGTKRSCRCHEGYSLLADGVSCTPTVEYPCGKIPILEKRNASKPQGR
Sequence of Coagulation factor VII/tissue factor (P08709 213-466 limits assumed): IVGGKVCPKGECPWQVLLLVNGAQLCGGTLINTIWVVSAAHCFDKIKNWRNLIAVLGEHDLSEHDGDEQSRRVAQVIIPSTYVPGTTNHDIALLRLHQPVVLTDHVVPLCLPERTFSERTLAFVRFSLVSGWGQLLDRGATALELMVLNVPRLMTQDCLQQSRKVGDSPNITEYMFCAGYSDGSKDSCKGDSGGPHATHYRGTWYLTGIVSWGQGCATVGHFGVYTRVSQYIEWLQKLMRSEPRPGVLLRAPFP
Sequence of Coagulation factor VII/tissue factor (P13726 33-295 partner limits assumed): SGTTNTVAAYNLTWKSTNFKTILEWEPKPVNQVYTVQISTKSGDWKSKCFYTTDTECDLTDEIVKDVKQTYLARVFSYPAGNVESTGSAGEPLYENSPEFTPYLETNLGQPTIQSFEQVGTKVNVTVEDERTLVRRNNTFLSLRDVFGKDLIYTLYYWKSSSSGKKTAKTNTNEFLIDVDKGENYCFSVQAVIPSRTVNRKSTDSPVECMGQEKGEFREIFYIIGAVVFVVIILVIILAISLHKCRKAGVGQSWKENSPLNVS

Sequence of Coagulation factor X (P00742 41-179 limits assumed): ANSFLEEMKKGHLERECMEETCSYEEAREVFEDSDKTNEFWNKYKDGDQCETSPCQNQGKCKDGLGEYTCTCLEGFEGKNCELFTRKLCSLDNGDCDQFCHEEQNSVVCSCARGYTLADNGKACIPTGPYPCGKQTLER
Sequence of Coagulation factor X (P00742 235-488 limits assumed): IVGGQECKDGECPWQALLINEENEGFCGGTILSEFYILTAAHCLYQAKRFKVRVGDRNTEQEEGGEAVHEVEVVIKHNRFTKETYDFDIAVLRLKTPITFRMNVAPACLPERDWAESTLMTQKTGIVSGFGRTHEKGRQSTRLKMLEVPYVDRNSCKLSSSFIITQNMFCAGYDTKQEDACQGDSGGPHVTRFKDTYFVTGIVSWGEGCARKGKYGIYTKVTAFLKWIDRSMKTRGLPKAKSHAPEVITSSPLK

For `CCOc1ccc(Oc2nc(Oc3cccc(C(=N)N)c3)c(F)c(NC(C)CCc3ccccc3)c2F)c(C(=O)O)c1` (stereo unspecified), the Concentration prolonging prothrombin time in assay [1] came out at 94 µM. Moreover, the IC50 at Coagulation factor X is 17000 nM; in assay [2] it was 29 nM.
`CC(CCc1ccccc1)Nc1c(F)c(Oc2cccc(C(=N)N)c2)nc(Oc2ccc(C(=O)N[C@H](O)C(=O)O)cc2C(=O)O)c1F` (stereo partly specified) showed an IC50 in assay [2] of 730 nM.
Turning to `Cc1c(F)c(Oc2cccc(C(=N)N)c2)nc(Oc2ccccc2C(=O)O)c1F`, the IC50 was under 10000 nM at Coagulation factor X and 1200 nM in assay [2].
`CC(CCc1ccccc1)Nc1c(F)c(Oc2cccc(C(=N)N)c2)nc(Oc2ccc(N(C)C)cc2C(=O)O)c1F` (stereo in doubt; 19) [listing 1 of 2 here]: the IC50 on Coagulation factor X turned out to be 6800 nM; in assay [2], 13 nM.
`CNc1ccc(Oc2nc(Oc3cccc(C(=N)N)c3)c(F)c(NC(C)CCc3ccccc3)c2F)c(C(=O)O)c1` (stereo unspecified) yielded a Concentration prolonging prothrombin time in assay [1] of 41 µM. The IC50 on Coagulation factor X stood at 8000 nM; in assay [2], 17 nM.
Take `CC(CCc1ccccc1)Nc1c(F)c(Oc2cccc(C(=N)N)c2)nc(Oc2ccc(N)cc2C(=O)O)c1F` (stereo unspecified): the values for the IC50 (against Coagulation factor X; in assay [2]) were 11000 nM and 79 nM, respectively.
Consider `COc1ccc(Oc2nc(Oc3cccc(C(=N)N)c3)c(F)c(NC(C)CCc3ccccc3)c2F)c(C(=O)O)c1` (stereo unspecified), for which the 50% inhibitory concentration (IC50) against Coagulation factor X was 11000 nM; in assay [2] it was 39 nM.
With `CCC(CO)NC(=O)c1ccc(Oc2nc(Oc3cccc(C(=N)N)c3)c(F)c(NC(C)CCc3ccccc3)c2F)c(C(=O)O)c1` (stereo unspecified), the Concentration prolonging prothrombin time in assay [1] was 10 µM. The IC50 against Coagulation factor X was determined as 5700 nM; in assay [2] it was 23 nM.
The like results for `CC(CCc1ccccc1)Nc1c(F)c(Oc2cccc(C(=N)N)c2)nc(Oc2ccc(C(C)(C)C)cc2C(=O)O)c1F` (stereo unspecified) were, in that order, 24 µM, 3300 nM and 21 nM.
As to `CC(CCc1ccccc1)Nc1c(F)c(Oc2cccc(C(=N)N)c2)nc(Oc2ccc(N(C)C)cc2C(=O)O)c1F` (stereo in doubt; 28) [listing 1 of 2 here], the Concentration prolonging prothrombin time in assay [1] was determined as 16 µM.
Molecule `CCCOc1ccc(Oc2nc(Oc3cccc(C(=N)N)c3)c(F)c(NC(C)CCc3ccccc3)c2F)c(C(=O)O)c1` (stereo unspecified) registered a Concentration prolonging prothrombin time in assay [1] of 95 µM. The figures for the IC50 (on Coagulation factor X; in assay [2]) were 26000 nM and 19 nM, respectively.
The molecule `CCCCN(CCCC)c1ccc(Oc2nc(Oc3cccc(C(=N)N)c3)c(F)c(NC(C)CCc3ccccc3)c2F)c(C(=O)O)c1` (stereo unspecified) registered an IC50 in assay [2] of 36 nM.
Still for that read-out and setting: as for `Cc1c(F)c(Oc2cccc(C(=N)N)c2)nc(Oc2ccc(N(C)C)cc2C(=O)O)c1F`, the figure is 190 nM.
As for `CC(CCc1ccccc1)Nc1c(F)c(Oc2cccc(C(=N)N)c2)nc(Oc2ccc(C(=O)NC(C)C(C)(C)C)cc2C(=O)O)c1F` (stereo unspecified), the Concentration prolonging prothrombin time in assay [1] was found to be 15 µM. For the same molecule, the figures for the IC50 (at Coagulation factor X; in assay [2]) were 4300 nM and 14 nM, respectively.
`CCN(CC)c1ccc(Oc2nc(Oc3cccc(C(=N)N)c3)c(F)c(NC(C)CCc3ccccc3)c2F)c(C(=O)O)c1` (stereo unspecified) registered a Concentration prolonging prothrombin time in assay [1] of 83 µM. For the same molecule, the IC50 against Coagulation factor X worked out at 9600 nM; in assay [2] it was 16 nM.
In the same order, the values of `CC(CCc1ccccc1)Nc1c(F)c(Oc2cccc(C(=N)N)c2)nc(Oc2ccc(-c3ccccc3)cc2C(=O)O)c1F` (stereo unspecified) are 112 µM, 17000 nM and 23 nM.
As to `CC(CCc1ccccc1)Nc1c(F)c(Oc2cccc(C(=N)N)c2)nc(Oc2ccc(N(C)C)cc2C(=O)O)c1F` (stereo in doubt; 28) [listing 2 of 2 here], the IC50 on Coagulation factor X turned out to be 4500 nM; in assay [2], 15 nM.
As for `CC(CCc1ccccc1)Nc1c(F)c(Oc2cccc(C(=N)N)c2)nc(Oc2ccc(N(C)C)cc2C(=O)O)c1F` (stereo in doubt; 19) [listing 2 of 2 here], the Concentration prolonging prothrombin time in assay [1] came out at 49 µM.
In assay [1], `CC(C)CNC(=O)c1ccc(Oc2nc(Oc3cccc(C(=N)N)c3)c(F)c(NC(C)CCc3ccccc3)c2F)c(C(=O)O)c1` (stereo unspecified) displayed a Concentration prolonging prothrombin time of 22 µM. Also, the IC50 against Coagulation factor X worked out at 9600 nM; in assay [2], 10 nM.
The like results for `CC(CCc1ccccc1)Nc1c(F)c(Oc2cccc(C(=N)N)c2)nc(Oc2ccc(C(C)C)cc2C(=O)O)c1F` (stereo unspecified) were, in that order, 28 µM, 4800 nM and 15 nM.
On to `Cc1ccc(Oc2nc(Oc3cccc(C(=N)N)c3)c(F)c(NC(C)CCc3ccccc3)c2F)c(C(=O)O)c1` (stereo unspecified), for which the IC50 at Coagulation factor X was determined as 29000 nM; in assay [2] it was 20 nM.
On to `CC(CCc1ccccc1)Nc1c(F)c(Oc2cccc(C(=N)N)c2)nc(Oc2ccc(C(=O)NCCCCO)cc2C(=O)O)c1F` (stereo unspecified), for which the Concentration prolonging prothrombin time in assay [1] was 16 µM. Further, the figures for the IC50 (against Coagulation factor X; in assay [2]) were 20000 nM and 67 nM, respectively.
`CC(CCc1ccccc1)Nc1c(F)c(Oc2cccc(C(=N)N)c2)nc(Oc2ccc(C(=O)O)cc2C(=O)O)c1F` (stereo unspecified) gave an IC50 in assay [2] of 200 nM.
For `CC(CCc1ccccc1)Nc1c(F)c(Oc2cccc(C(=N)N)c2)nc(Oc2ccccc2C(=O)O)c1F` (stereo unspecified), in assay [1], the Concentration prolonging prothrombin time worked out at 35 µM. The molecule further had an IC50 against Coagulation factor X of 55000 nM.
For `CC(CCc1ccccc1)Nc1c(F)c(Oc2cccc(C(=N)N)c2)nc(Oc2ccc(O)cc2C(=O)O)c1F` (stereo unspecified), the values for the IC50 (at Coagulation factor X; in assay [2]) were 11000 nM and 560 nM, respectively.
As for `COc1cccc(CNC(=O)c2ccc(Oc3nc(Oc4cccc(C(=N)N)c4)c(F)c(NC(C)CCc4ccccc4)c3F)c(C(=O)O)c2)c1` (stereo unspecified), the Concentration prolonging prothrombin time in assay [1] is 53 µM. Also, the IC50 was 9500 nM at Coagulation factor X and 8 nM in assay [2].
As to `CC(CCc1ccccc1)Nc1c(F)c(Oc2cccc(C(=N)N)c2)nc(Oc2ccc(C(=O)NCCCO)cc2C(=O)O)c1F` (stereo unspecified), in assay [1], the Concentration prolonging prothrombin time is 12 µM. Further, the IC50 in assay [2] was 71 nM.
Molecule `CC(CCc1ccccc1)Nc1c(F)c(Oc2cccc(C(=N)N)c2)nc(Oc2ccc(C(=O)NC(C)(C)CO)cc2C(=O)O)c1F` (stereo unspecified) registered a Concentration prolonging prothrombin time in assay [1] of 11 µM. Moreover, the IC50 came out at 59000 nM at Coagulation factor X and 16 nM in assay [2].
In turn, `CC(CCc1ccccc1)Nc1c(F)c(Oc2cccc(C(=N)N)c2)nc(Oc2ccc(C(=O)NCc3ccc(O)c(O)c3)cc2C(=O)O)c1F` (stereo unspecified) returned an IC50 in assay [2] of 140 nM.
In turn, `CC(CCc1ccccc1)Nc1c(F)c(Oc2cccc(C(=N)N)c2)nc(Oc2ccc(OC(C)C)cc2C(=O)O)c1F` (stereo unspecified) showed a Concentration prolonging prothrombin time in assay [1] of 52 µM. The IC50 against Coagulation factor X turned out to be 12000 nM; in assay [2], 17 nM.
Turning to `CC(CCc1ccccc1)Nc1c(F)c(Oc2cccc(C(=N)N)c2)nc(Oc2ccc(C(=O)NC(CO)CO)cc2C(=O)O)c1F` (stereo unspecified), the Concentration prolonging prothrombin time in assay [1] turned out to be 9 µM. Further, the results for the IC50 (on Coagulation factor X; in assay [2]) were 13000 nM and 46 nM, respectively.
As for `C[C@H](CCc1ccccc1)Nc1c(F)c(Oc2cccc(C(=N)N)c2)nc(Oc2ccccc2C(=O)O)c1F`, the Concentration prolonging prothrombin time in assay [1] came out at 29 µM. In addition, the IC50 at Coagulation factor X is 51000 nM; in assay [2], 45 nM.
In the case of `CC(CCc1ccccc1)Nc1c(F)c(Oc2cccc(C(=N)N)c2)nc(Oc2ccc(C(=O)NCc3cccc(O)c3)cc2C(=O)O)c1F` (stereo unspecified), the Concentration prolonging prothrombin time in assay [1] was determined as 49 µM. For the same molecule, the IC50 against Coagulation factor X was 4100 nM; in assay [2], 39 nM.

What is called IC50 is the concentration that inhibits the measured activity by half. High values mean lower potency, low ones higher potency.

The record behind these values is ChEMBL document CHEMBL1143462, “The discovery of fluoropyridine-based inhibitors of the Factor VIIa/TF complex” (Bioorg Med Chem Lett, 2005).
